Assay results as given in US10421718B2, “EBNA1 inhibitors and their method of use” (priority 2013, dated 2019).
Where a name gives a salt, the structure may show the parent alone.

These compounds were tested against T1, His-EBNA1 (DNA binding domain of EBNA1, amino acids 459-607) (Epstein-Barr virus, UniProt P03211) (assay: Inhibition of 5′-biotin-oPL4624 binding to His-EBNA1 using Alpha Screen technology). Conditions: Alpha Screen Activity (IC50, inhibition of 5′-biotin-oPL4624 binding to His-EBNA1), 15 nM His-EBNA1, 0.2 nM bt-oPL4624, 2 hr room temperature.
T1 construct: made in house; host or cells: E. coli
T1 sequence (P03211 459-607): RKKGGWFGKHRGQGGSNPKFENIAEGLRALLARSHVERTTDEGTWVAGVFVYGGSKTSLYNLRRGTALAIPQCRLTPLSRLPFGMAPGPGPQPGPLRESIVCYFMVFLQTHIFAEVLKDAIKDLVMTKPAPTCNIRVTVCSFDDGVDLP
Summary of the method: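 His-tagged EBNA1 DNA-binding domain (aa 459-607, E. coli-expressed) at 15 nM with 0.2 nM biotinylated self-complementary oligo, streptavidin donor and nickel acceptor beads, in 25 mM Tris pH 7.2, 160 mM NaCl, 1 mM MgCl2. Compound 3.2 nM-100 μM final; AlphaScreen read after 2 h at room temperature, one-site dose-response fit.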
For `COc1ccc(C#Cc2cccc(C(=O)O)c2-c2ccc3[nH]c(C(=O)O)cc3c2)cc1` [Entry 255, 5-(2-carboxy-6-((4-methoxyphenyl)ethynyl)phenyl)-1H-indole-2-carboxylic acid], the IC50 was 10 to 100 µM. Work on `O=C(O)c1cccc(C#Cc2ccc(F)c(OC3CCOCC3)c2)c1-c1ccc2cc[nH]c2c1` [Entry 256, 3-((4-fluoro-3-(tetrahydro-2H-pyran-4-yloxy)phenyl)ethynyl)-2-(1H-indol-6-yl)benzoic acid] yielded an IC50 of 1 to 10 µM. Compound `CC(=O)Nc1cccc(-c2c(C#Cc3ccccc3)cccc2C(=O)O)c1` [Entry 257, 5′-acetamido-6-(phenylethynyl)biphenyl-2-carboxylic acid] has an IC50 of 10 to 100 µM. Work on `Nc1ccc2c(c1)ncn2CC#Cc1cccc(C(=O)O)c1-c1ccccc1` [Entry 258, 3-[3-(5-amino-1H-1,3-benzodiazol-1-yl)prop-1-yn-1-yl]-2-phenylbenzoic acid trifluoroacetate salt] yielded an IC50 of 1 to 10 µM. `O=C(O)c1cccc(C#Cc2ccncc2)c1-c1ccc2cc[nH]c2c1` [Entry 259, 2-(1H-indol-6-yl)-3-[2-(pyridin-4-yl)ethynyl]benzoic acid; trifluoroacetate salt] showed an IC50 of 1 to 10 µM. `Cc1ccc(-c2c(C#Cc3ccncc3)cccc2C(=O)O)cc1` [Entry 260, 2-(4-methylphenyl)-3-[2-(pyridin-4-yl)ethynyl]benzoic acid; trifluoroacetate salt] was tested, and the IC50 was 10 to 100 µM. `Cc1ccc(-c2c(C#Cc3cccc(O)c3)cccc2C(=O)O)cc1` [Entry 261, 3-[2-(3-hydroxyphenyl)ethynyl]-2-(4-methylphenyl)benzoic acid] was tested, and the IC50 was 10 to 100 µM. For `O=C(O)c1cccc(C#CCNc2ccc3[nH]cnc3c2)c1-c1ccccc1` [Entry 262, 3-{3-[(1H-1,3-benzodiazol-6-yl)amino]prop-1-yn-1-yl}-2-phenylbenzoic acid; trifluoroacetate salt], the IC50 was 1 to 10 µM. `Cn1ccc2cc(-c3c(C#Cc4cccc(O)c4)cccc3C(=O)O)ccc21` [Entry 263, 3-[2-(3-hydroxyphenyl)ethynyl]-2-(1-methyl-1H-indol-5-yl)benzoic acid] gave an IC50 of 1 to 10 µM. Compound `CN1CCOc2cc(-c3c(C#Cc4cccc(O)c4)cccc3C(=O)O)ccc21` [Entry 264, 3-[2-(3-hydroxyphenyl)ethynyl]-2-(4-methyl-3,4-dihydro-2H-1,4-benzoxazin-7-yl)benzoic acid; trifluoroacetate salt] has an IC50 of 1 to 10 µM. With `CS(=O)(=O)Nc1cccc(-c2c(C#Cc3cccc(O)c3)cccc2C(=O)O)c1` [Entry 265, 3-[2-(3-hydroxyphenyl)ethynyl]-2-(3-methanesulfonamidophenyl)benzoic acid] the IC50 was 10 to 100 µM. `O=C(O)c1cccc(C#Cc2cccc(O)c2)c1-c1ccc2cc[nH]c2c1` [Entry 266, 3-[2-(3-hydroxyphenyl)ethynyl]-2-(1H-indol-6-yl)benzoic acid] showed an IC50 of less than 1 µM. In the case of `NC(=O)c1cccc(-c2c(C#Cc3cccc(O)c3)cccc2C(=O)O)c1` [Entry 267, 2-(3-carbamoylphenyl)-3-[2-(3-hydroxyphenyl)ethynyl]benzoic acid], the IC50 is reported as 10 to 100 µM. `O=C(O)c1cccc(C#Cc2cccc(O)c2)c1-c1cn(S(=O)(=O)c2ccccc2)c2ccccc12` [Entry 268, 2-[1-(benzenesulfonyl)-1H-indol-3-yl]-3-[2-(3-hydroxyphenyl)ethynyl]benzoic acid] was tested, and the IC50 was 10 to 100 µM. For `O=C(O)c1cccc(C#Cc2cccc(O)c2)c1-c1cccc(O)c1` [Entry 269, 2-(3-hydroxyphenyl)-3-[2-(3-hydroxyphenyl)ethynyl]benzoic acid], the IC50 was 10 to 100 µM. `O=C(O)c1cccc(C#Cc2ccncc2)c1-c1ccc2[nH]ccc2c1` [Entry 270, 2-(1H-indol-5-yl)-3-[2-(pyridin-4-yl)ethynyl]benzoic acid; trifluoroacetate salt] gave an IC50 of 10 to 100 µM. `O=C(O)c1cccc(C#Cc2ccncc2)c1-c1cc(O)cc(Cl)c1` [Entry 271, 2-(3-chloro-5-hydroxyphenyl)-3-[2-(pyridin-4-yl)ethynyl]benzoic acid; trifluoroacetate salt] showed an IC50 of 1 to 10 µM.
